Activity calls are given as the source filed them. The rule behind the calls is not given here.
How the values were obtained:
[1] = target: Sodium-dependent dopamine transporter (Homo sapiens, UniProt Q01959); assay: Inhibition of [3H]dopamine uptake at human DAT expressed in HEK293 cells; format: cell-based
[2] = target: Neuronal acetylcholine receptor; alpha3/beta4 (Homo sapiens) (UniProt P30926+P32297); assay: Intrinsic activity at alpha3beta4 nAChR receptor in human SH-SY5Y cells assessed as 86Rb+ efflux at 5 to 100 uM by liquid scintillation counting; format: cell-based
[3] = target: Neuronal acetylcholine receptor; alpha4/beta2 (Homo sapiens) (UniProt P17787+P43681); assay: Intrinsic activity at human alpha4beta2 nAChR receptor expressed in human SH-SY5Y cells assessed as 86Rb+ efflux at 5 to 100 uM by liquid scintillation counting; format: cell-based
[4] = target: Neuronal acetylcholine receptor; alpha4/beta4 (Homo sapiens) (UniProt P30926+P43681); assay: Intrinsic activity at human alpha4beta4 nAChR receptor expressed in human SH-SY5Y cells assessed as 86Rb+ efflux at 5 to 100 uM by liquid scintillation counting; format: cell-based
[5] = target: Acetylcholine receptor; alpha1/beta1/delta/gamma (Homo sapiens) (UniProt P02708+P07510+P11230+Q07001); assay: Intrinsic activity at alpha-1-beta-1-gamma-delta nAChR receptor expressed in human TE671/RD cells assessed as 86Rb+ efflux at 5 to 100 uM by liquid scintillation counting; format: cell-based
Mus musculus [6] = species on record: Mus musculus; assay: Antinociceptive activity in ICR mouse D'Amour and Smith model of pain assessed as inhibition of nicotine-induced response by tail-flick test; format: functional
Mus musculus [7] = species on record: Mus musculus; assay: Antinociceptive activity in ICR mouse assessed as inhibition of nicotine-induced response by hotplate test; format: functional
Mus musculus [8] = species on record: Mus musculus; assay: Effect on behavioral activity in ICR mouse assessed as inhibition of nicotine-induced locomotory response by locomotor assay; format: functional
Mus musculus [9] = species on record: Mus musculus; assay: Effect on body temperature in ICR mouse assessed as inhibition of nicotine-induced hypothermic response; format: functional
[10] = target: Sodium-dependent noradrenaline transporter (Homo sapiens, UniProt P23975); assay: Inhibition of [3H]norepinephrine uptake at human NET expressed in HEK293 cells; format: cell-based
Sequence of Sodium-dependent noradrenaline transporter (P23975 whole entry): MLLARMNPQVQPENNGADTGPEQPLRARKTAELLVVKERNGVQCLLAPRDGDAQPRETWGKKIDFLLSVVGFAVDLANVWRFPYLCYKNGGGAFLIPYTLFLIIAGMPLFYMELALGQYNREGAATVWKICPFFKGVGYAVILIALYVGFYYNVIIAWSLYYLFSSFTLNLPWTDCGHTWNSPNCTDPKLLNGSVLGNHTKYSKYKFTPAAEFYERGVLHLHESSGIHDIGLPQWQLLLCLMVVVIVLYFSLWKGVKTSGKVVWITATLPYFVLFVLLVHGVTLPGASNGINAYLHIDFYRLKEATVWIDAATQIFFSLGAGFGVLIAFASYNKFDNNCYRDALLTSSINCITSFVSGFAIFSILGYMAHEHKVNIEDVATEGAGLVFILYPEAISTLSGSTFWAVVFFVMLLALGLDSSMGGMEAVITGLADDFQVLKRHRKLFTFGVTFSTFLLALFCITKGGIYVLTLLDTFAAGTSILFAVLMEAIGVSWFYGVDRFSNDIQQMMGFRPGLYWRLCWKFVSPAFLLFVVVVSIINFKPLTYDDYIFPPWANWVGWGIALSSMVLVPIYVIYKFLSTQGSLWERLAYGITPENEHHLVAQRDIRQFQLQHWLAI

[11] = target: Sodium-dependent serotonin transporter (Homo sapiens, UniProt P31645); assay: Inhibition of [3H]serotonin uptake at human SERT expressed in HEK293 cells; format: cell-based
Sequence of Sodium-dependent serotonin transporter (P31645 whole entry): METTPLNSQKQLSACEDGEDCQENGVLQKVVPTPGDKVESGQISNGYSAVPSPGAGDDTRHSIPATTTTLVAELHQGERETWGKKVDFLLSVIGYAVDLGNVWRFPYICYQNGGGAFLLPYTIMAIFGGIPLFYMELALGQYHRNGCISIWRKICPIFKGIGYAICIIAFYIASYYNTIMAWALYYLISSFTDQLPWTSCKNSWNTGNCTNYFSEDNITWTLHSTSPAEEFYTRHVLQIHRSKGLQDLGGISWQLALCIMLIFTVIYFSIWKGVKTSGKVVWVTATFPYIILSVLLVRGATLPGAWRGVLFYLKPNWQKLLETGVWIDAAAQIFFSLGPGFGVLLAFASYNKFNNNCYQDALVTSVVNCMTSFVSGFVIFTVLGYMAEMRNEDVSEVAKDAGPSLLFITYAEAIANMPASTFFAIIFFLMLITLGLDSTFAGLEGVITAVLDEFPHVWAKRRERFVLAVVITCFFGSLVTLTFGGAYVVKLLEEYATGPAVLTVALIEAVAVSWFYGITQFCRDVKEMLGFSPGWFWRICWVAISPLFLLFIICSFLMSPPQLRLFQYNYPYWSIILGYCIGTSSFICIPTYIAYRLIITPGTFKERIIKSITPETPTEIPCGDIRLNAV

Sequence of Sodium-dependent dopamine transporter (Q01959 whole entry): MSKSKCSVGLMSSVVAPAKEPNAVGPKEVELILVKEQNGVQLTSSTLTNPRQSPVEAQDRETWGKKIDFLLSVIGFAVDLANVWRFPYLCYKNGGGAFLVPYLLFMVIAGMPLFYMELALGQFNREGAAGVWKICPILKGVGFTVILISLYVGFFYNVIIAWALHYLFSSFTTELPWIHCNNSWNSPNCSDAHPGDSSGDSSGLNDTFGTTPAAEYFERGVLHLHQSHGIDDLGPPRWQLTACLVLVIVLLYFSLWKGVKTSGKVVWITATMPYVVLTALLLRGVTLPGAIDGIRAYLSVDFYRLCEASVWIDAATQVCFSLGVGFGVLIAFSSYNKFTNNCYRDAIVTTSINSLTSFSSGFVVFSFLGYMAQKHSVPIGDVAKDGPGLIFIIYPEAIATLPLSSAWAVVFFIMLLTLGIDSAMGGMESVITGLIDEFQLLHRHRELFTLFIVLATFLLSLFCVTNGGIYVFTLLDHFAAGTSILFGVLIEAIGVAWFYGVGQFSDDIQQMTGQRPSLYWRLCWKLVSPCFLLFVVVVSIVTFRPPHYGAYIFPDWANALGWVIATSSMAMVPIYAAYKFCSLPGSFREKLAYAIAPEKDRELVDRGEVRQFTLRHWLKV

Compound | IC50 [1] | Activity [2] | Activity [3] | Activity [4] | Activity [5] | AD50 (Mus musculus [6]) | AD50 (Mus musculus [7]) | AD50 (Mus musculus [8]) | AD50 (Mus musculus [9]) | IC50 [10] | IC50 [11]
CCC(NC(C)(C)C)C(=O)c1cccc(Cl)c1 (stereo unspecified) | 209 nM | inactive | inactive | inactive | inactive | 0.5 mg/kg | inactive | 11.7 mg/kg | inactive | – | –
Cc1cc(C(=O)C(C)NC(C)(C)C)ccc1Br (stereo unspecified) | – | inactive | inactive | inactive | inactive | 0.015 mg/kg | inactive | inactive | inactive | 7250 nM | –
COc1cccc(C(=O)C(C)NC2CCCC2)c1 (stereo unspecified) | 2270 nM | inactive | inactive | inactive | inactive | inactive | inactive | inactive | inactive | 8200 nM | 6900 nM
Cc1ccc(C(=O)C(C)NC(C)(C)C)cc1Cl (stereo unspecified) | 410 nM | inactive | inactive | inactive | inactive | 0.2 mg/kg | 7.2 mg/kg | 11 mg/kg | 10 mg/kg | 2040 nM | –
CC(C(=O)c1cccc([N+](=O)[O-])c1)N1CCCCC1 (stereo unspecified) | 10000 nM | inactive | inactive | inactive | inactive | inactive | inactive | inactive | inactive | – | –
CC(NC1CCCC1)C(=O)c1cccc(Cl)c1 (stereo unspecified) | – | inactive | inactive | inactive | inactive | 0.014 mg/kg | inactive | inactive | inactive | – | –
CC(C(=O)c1cccc(Cl)c1)N(C)C(C)(C)C (stereo unspecified) | 6000 nM | inactive | inactive | inactive | inactive | 0.46 mg/kg | 8.7 mg/kg | inactive | inactive | 1570 nM | –
Cc1cccc(C(=O)C(C)NC2CCCC2)c1 (stereo unspecified) | 842 nM | inactive | inactive | inactive | inactive | inactive | inactive | inactive | inactive | 8700 nM | –
COc1cccc(C(=O)C(C)NC(C)(C)C)c1 (stereo unspecified) | 3620 nM | inactive | inactive | inactive | inactive | 1.6 mg/kg | inactive | inactive | inactive | – | –
CCCC(NC(C)(C)C)C(=O)c1cccc(Cl)c1 (stereo unspecified) | 56 nM | inactive | inactive | inactive | inactive | 10 mg/kg | inactive | inactive | inactive | 370 nM | –
CC(NC(C)(C)C)C(=O)c1cccc(Cl)c1 (stereo unspecified) [BUPROPION] | – | inactive | inactive | inactive | inactive | 1.2 mg/kg | 15 mg/kg | – | 9.2 mg/kg | – | –
CC(NC1CCCC1)C(=O)c1cccc(F)c1 (stereo unspecified) | 693 nM | inactive | inactive | inactive | inactive | inactive | inactive | inactive | inactive | 2850 nM | –
CC(NC(C)(C)C)C(=O)c1ccc(F)c(F)c1 (stereo unspecified) | 7980 nM | inactive | inactive | inactive | inactive | 0.05 mg/kg | inactive | inactive | inactive | 6480 nM | –
CC(C(=O)c1cccc(Cl)c1)N1CCCCC1 (stereo unspecified) | 852 nM | inactive | inactive | inactive | inactive | 0.05 mg/kg | inactive | inactive | inactive | 2520 nM | –
CC(NC(C)(C)C)C(=O)c1cc(Cl)cc(Cl)c1 (stereo unspecified) | – | inactive | inactive | inactive | inactive | 0.028 mg/kg | 4.3 mg/kg | inactive | inactive | 14000 nM | –
Cc1ccc(C(=O)C(C)NC(C)(C)C)cc1 (stereo unspecified) | 1950 nM | inactive | inactive | inactive | inactive | 0.09 mg/kg | 7.75 mg/kg | 11.8 mg/kg | 8.8 mg/kg | – | –
CC(NC1CCCC1)C(=O)c1cccc([N+](=O)[O-])c1 (stereo unspecified) | – | inactive | inactive | inactive | inactive | inactive | inactive | inactive | inactive | – | –
CC(NC(C)(C)C)C(=O)c1cccc(Br)c1 (stereo unspecified) | 511 nM | inactive | inactive | inactive | inactive | 0.12 mg/kg | 14.9 mg/kg | 27.1 mg/kg | 11.5 mg/kg | 5600 nM | –
CC(C(=O)c1cccc(Cl)c1)N(C)C (stereo unspecified) | 1750 nM | inactive | inactive | inactive | inactive | 5.2 mg/kg | inactive | inactive | inactive | 1520 nM | –
Cc1cccc(C(=O)C(C)NC(C)(C)C)c1 (stereo unspecified) | – | inactive | inactive | inactive | inactive | 0.05 mg/kg | 6.8 mg/kg | 4.3 mg/kg | 7.8 mg/kg | 6200 nM | –
CC(NC(C)(C)C)C(=O)c1cccc(F)c1 (stereo unspecified) | 2320 nM | inactive | inactive | inactive | inactive | inactive | inactive | inactive | inactive | 6500 nM | –
CCCC(NC(C)(C)C)C(=O)c1ccc(Cl)c(Cl)c1 (stereo unspecified) | 31 nM | inactive | inactive | inactive | inactive | 0.13 mg/kg | 15 mg/kg | inactive | 17.5 mg/kg | – | 2300 nM
CC(NC(C)(C)C)C(=O)c1cccc([N+](=O)[O-])c1 (stereo unspecified) | – | inactive | inactive | inactive | inactive | inactive | inactive | inactive | inactive | – | –
CC(CNC(C)(C)C)C(=O)c1cccc(Cl)c1 (stereo unspecified) | – | inactive | inactive | inactive | inactive | 10.5 mg/kg | inactive | inactive | 16 mg/kg | – | –
CC(NC(C)(C)C)C(=O)c1cccs1 (stereo unspecified) | – | inactive | inactive | inactive | inactive | 0.077 mg/kg | inactive | inactive | inactive | – | –
CC(NC1CCCC1)C(=O)c1cccc(Br)c1 (stereo unspecified) | 845 nM | inactive | inactive | inactive | inactive | inactive | inactive | inactive | inactive | 2530 nM | –

From ChEMBL document CHEMBL1157604 (J Med Chem, 2010)
